{"source": "patent US11596615B2", "about": "“Compositions and methods for treatment of insulin resistance” (Temple University—Of The Commonwealth System Of Higher …, priority 2016, dated 2023)", "key": {"[1]": {"assay": "Predicted concentration-time profile for oral dosing in drinking water", "details": "10 mg/kg/day in drinking water, modeled as six oral doses over 12 hrs, plasma", "experimental": "The maximum predicted concentration is 0.82 μg/mL and the minimum concentration 0.1 μg/mL. The dose can be adjusted proportionally to achieve the desired concentrations."}, "[2]": {"system": "db/db mice", "assay": "Glucose tolerance test in leptin receptor knock-out (db/db) mice", "type": "in vivo", "experimental": "Leptin receptor knock-out (db/db) mice have severe, rapid, spontaneous and early-onset obesity and insulin resistance that is first recognizable at 4 weeks of age. These animals (5 for each group) were used to determine the effect of (S)-2-amino-6-((3-aminopropyl)amino)hexanoic acid dihydrochloride on impaired glucose tolerance at pre-diabetes level. The groups consisted of (i) db/db mice administered 50 mg/kg b.i.d. p.o. (S)-2-amino-6-((3-aminopropyl)amino)hexanoic acid dihydrochloride; (ii) db/db vehicle control-treated mice; and (iii) heterozygous littermate control mice. The treatment period was for 7 days. Glucose tolerance tests were performed as described above.\nTo determine the effect of (S)-2-amino-6-((3-aminopropyl)amino)hexanoic acid dihydrochloride on impaired glucose tolerance after diabetes is established, 6 week old db/db mice were treated with the drug (50 mg/kg b.i.d. p.o.) for 14 days. The positive control group was treated with metformin at the same dose. […] The results establish that the drug can be used to treat both pre-diabetes, and diabetes wherein the diabetic phenotype has been established.\nTo assess whether (S)-2-amino-6-((3-aminopropyl)amino)hexanoic acid dihydrochloride delays progression to diabetes or only masks diabetes during treatment period, (i) db/db mice (ii) db/db vehicle control-treated mice; and (iii) heterozygous littermate control mice were treated with and without (S)-2-amino-6-((3-aminopropyl)amino)hexanoic acid dihydrochloride or metformin (50 mg/kg b.i.d. p.o.) for 14 days. The 14 day treatment period was followed by another 14 day period (“wash out period”) in which no treatment was given."}, "[3]": {"assay": "Solution stability in PBS, simulated gastric fluid and simulated intestinal fluid", "type": "physicochemical", "details": "37° C.", "experimental": "(§1) The stability of the title compound was tested in the following media, in the following concentrations: (i) 1 μM in mouse (male C57BL/6) plasma, (ii) 1 μM in PBS (with Ca and Mg) (control treatment); (iii) 5 μM in stimulated gastric fluid (SGF; 0.2% NaCl; 84 mM HCl; 0.32% pepsin; pH 1.2); (iv) 5 μM in stimulated intestinal fluid (SIF; 50 mM KP, pH 6.8; 10 mg/ml pancreatin); and (v) 5 μM in PBS (+Ca and Mg) (control treatment). The results are as follows: (i) 1 μM in mouse plasma, t1/2>6 hr at 37° C.; (ii) 1 μM in PBS, t1/2>6 hr at 37° C.; (iii) 5 μM in SGF, t1/2>3 hrs at 37° C.; (iv) 5 μM in SIF, t1/2>3 hrs at 37° C.; and (v) 5 μM in PBS, t1/2>3 hr at 37° C. The “t1/2” values are the maximum time employed for the respective assays."}, "[4]": {"assay": "Liver microsome stability, rat", "type": "in vitro ADME, Rat (pooled Sprague Dawley; male)", "details": "male, Sprague Dawley; rat liver microsomes, 1 μM compound, 0.5 mg/ml microsomal protein, 37° C., 2 mM NADPH", "experimental": "The stability of the title compound in the presence of liver microsomes was tested at 1 μM compound and 0.5 mg/ml rat or human microsomal protein, at 37° C. with 2 mM NADPH (standard in vitro screening concentrations). […] The “t1/2” values are the maximum time employed for the respective assays."}, "[5]": {"assay": "Solubility in water, DMSO and PBS solubility assay", "type": "physicochemical", "experimental": "The title compound was determined to be soluble in water or DMSO at a concentration of at least 10 mM."}, "[6]": {"assay": "Solution stability in mouse plasma", "type": "in vitro ADME, mouse (male C57BL/6)", "details": "male, C57BL/6; 1 μM in mouse plasma, 37° C.", "experimental": "as §1"}, "[7]": {"system": "mice fed high fat diet (HFD)", "assay": "Blood glucose after glucose administration in overnourished mice (Example 10)", "type": "in vivo, C57BL/6J mice", "details": "10 μg/mL in drinking water, FIG. 7", "source_text": "Twenty-four C57BL/6J mice 8-weeks old were fed with either regular CHOW diet or high fat diet (HFD, 60% of fat content). Eight animals received CHOW diet for one week, 8 animals had been fed already with HFD for two weeks and were continuously fed with the same diet for one more week (for a total of 3 weeks feeding) and 8 animals started HFD at the time of the animal selection (2 weeks feeding). Each group was divided in half, 4 animals received regular water and the other 4 received the (S)-2-amino-6-((3-aminopropyl)amino)hexanoic acid dihydrochloride (10 μg/mL) dissolved in the water. Animals were fasted for 5 hours, weighed, and blood glucose measured by tail clipping. In addition, glucose (1 mg/g of body weight) was administered intraperitoneally. Additional glucose levels were measured at 20, 40 and 80 minutes after glucose administration. Heavy glucose was also administered intraperitoneally to further measure glucose uptake from tissues. Glucose level was taken again at 140 minutes. Animals were euthanized under anesthesia (isoflurane), and blood, liver, fat and muscle were collected."}, "[8]": {"assay": "Body weight of diet-induced (HFD) obese mice over two weeks", "type": "in vivo", "details": "10 mg/kg/day", "experimental": "The body weights of diet-induced (HFD) mice with and without (S)-2-amino-6-((3-aminopropyl)amino)hexanoic acid dihydrochloride (10 mg/kg/day) were measured over 14 days.\nIn contrast, poglitazone is known to cause water retention and weight gain."}}, "note": "Structures can show the parent of a compound that is named as a salt. Where two headings read alike, the source gives them in different places.", "data": [{"smiles": "NCCCNCCCC[C@H](N)C(=O)O", "note": "[APL, (S)-2-amino-6-((3-aminopropyl)amino)hexanoic acid dihydrochloride]", "values": [{"measurement": "maximum predicted concentration", "setting": "[1]", "value": 0.82, "unit": "µg/mL"}, {"measurement": "minimum predicted concentration", "setting": "[1]", "value": 0.1, "unit": "µg/mL"}, {"measurement": "impaired glucose tolerance after diabetes is established", "setting": "[2]; 6 week old db/db mice, 50 mg/kg b.i.d. p.o., 14 days, vs metformin at the same dose, FIG. 11", "value": "better in reducing impaired glucose tolerance than metformin"}, {"measurement": "impaired glucose tolerance after wash out period", "setting": "[2]; db/db mice, 50 mg/kg b.i.d. p.o. 14 days, then 14 days no treatment, FIG. 12", "value": "still effective in reducing impaired glucose tolerance even after 14 days following treatment removal"}, {"measurement": "impaired glucose tolerance, pre-diabetic stage", "setting": "[2]; pre-diabetic db/db mice, 50 mg/kg b.i.d. p.o., 7 days, FIG. 10", "value": "normalizes impaired glucose tolerance"}, {"measurement": "half-life at 1 μM", "setting": "[3]; 1 μM in PBS (with Ca and Mg)", "value": "> 6", "unit": "h"}, {"measurement": "half-life at 5 μM", "setting": "[3]; 5 μM in PBS (+Ca and Mg)", "value": "> 3", "unit": "h"}, {"measurement": "half-life at 5 μM", "setting": "[3]; simulated gastric fluid (SGF) with pepsin, 5 μM in SGF (pH 1.2, pepsin)", "value": "> 3", "unit": "h"}, {"measurement": "half-life at 5 μM", "setting": "[3]; simulated intestinal fluid (SIF) with pancreatin, 5 μM in SIF (pH 6.8, pancreatin)", "value": "> 3", "unit": "h"}, {"measurement": "half-life at 1 μM", "setting": "[4]", "value": "> 1", "unit": "h"}, {"measurement": "microsomal CLint at 1 μM", "setting": "[4]", "value": "< 23", "unit": "µL/min/mg"}, {"measurement": "solubility", "setting": "[5]; DMSO, organic solvent or mixture, read-out: solubility in DMSO", "value": "≥ 10", "unit": "mM"}, {"measurement": "solubility", "setting": "[5]; phosphate buffered saline (PBS) without Ca or Mg, aqueous buffer, PBS pH 7.4 without Ca or Mg, 200 μM = maximum concentration tested, read-out: solubility in PBS", "value": "> 0.2", "unit": "mM"}, {"measurement": "solubility", "setting": "[5]; water, read-out: solubility in water", "value": "≥ 10", "unit": "mM"}, {"measurement": "half-life at 1 μM", "setting": "[6]", "value": "> 6", "unit": "h"}, {"measurement": "glucose uptake impairment induced by overnutrition (blood glucose levels)", "setting": "[7]", "value": "effective in counteracting glucose uptake impairment induced by overnutrition"}, {"measurement": "body weight", "setting": "[8]; HFD obese mice, two weeks, FIG. 9", "value": "no effect on body weight"}, {"measurement": "toxicity (from body weight)", "setting": "[8]; mouse, in vivo", "value": "lack of significant toxicity"}]}]}
